This note sets out measurements from PubChem BioAssay (NCI).

Molecules are shown by their SMILES.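 Compound exposure: 48 hours, 5 concentrations, 96-well plates. TGI: concentration producing complete growth inhibition.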

This experiment deals with P388/ADR leukemia. In words: NCI tumour cell line growth inhibition, 48 h.

For `C[C@H](N)C(=O)N[C@@H]1[C@H]2C(=C(O)C[C@@H](O)[C@@H]2O)C(=O)O[C@]1(C)C(Cl)Cl`, the TGI came to 2100 nM.
